Source: patent US8722701B2, “1,2,3,4,5 6,7,8-octohydro-9-phenylacetamidoacridine, the preparation method and medical use thereof” (priority 2010, dated 2014)
Structures can show the parent of a compound that is named as a salt. Marks after values point to notes of the source that are not given here.

Key:
cholinesterase = conditions: Chinese Patent No. ZL 03104541.3; result in words; cited from earlier work
[1] = system: ouabain-induced arrhythmia in guinea pigs; experiment: Ouabain-induced arrhythmia in guinea pigs; format: in vivo, EWG/B guinea pigs; conditions: for Dosages of ouabain CA / Dosages of ouabain VF / Dosages of ouabain VP / Dosages of ouabain VT: ouabain infused 5 μg/min, n=6, x±s; for Antagonistic action against the arrhythmia induced by ouabain in guinea pigs: 100 and 200 mg/kg intragastric, result in words
Procedure: (§1) Models of experimental arrhythmia induced by aconitine and ouabain in rats and guinea pigs were constructed. The inventive compound and the hydrochloride thereof were administrated with dosages of 100 and 200 mg/kg, respectively. The positive medicament group was administrated with 10 mg/kg of Propranolol, and the control group was administrated with 0.5% carboxymethylcellulose sodium. Each group was administrated by gastric perfusion once. The occurrence times of ventricular premature contraction (VP), ventricular tachycardia (VT), ventricular fibrillation (VF) and cardiac arrest (CA) after administration of aconitine in rats were recorded; and the dosages of ouabain were also observed when VP, VT, VF and CA appeared.
Thirty-six guinea pigs were divided into 6 groups randomly: a control group, a positive medicament (Propranolol) group, high- and low-dosage groups (200 and 100 mg/kg) of the inventive compound and the hydrochloride thereof, respectively, 6 animals per group. Fifty minutes after intragastric administration, the animals of each groups were anaesthetized by injecting 10% chloral hydrate intraperitoneally and fixed in a supine position. After the external jugular vein was separated, intubation was performed and a constant-speed micro-infusion apparatus was installed. Then a type II lead normal electrocardiogram was recorded. After that, ouabain was infused via the external jugular vein at a constant rate of 5 μg/min, and the change of the electrocardiogram was observed. The dosages of ouabain when VP, VT, VF and CA occurred after administration of ouabain in the guinea pigs were recorded.
(§2) The experimental data were analyzed with the statistic software SPSS 10.0, and represented as x±s. The comparison among groups was analyzed by the intergroup comparison difference t test.

[2] = system: aconitine-induced arrhythmia in rats; experiment: Aconitine-induced arrhythmia in rats; format: in vivo, Wistar rats; conditions: for Occurrence time CA / Occurrence time VF / Occurrence time VP / Occurrence time VT: 50 min before aconitine 20 μg/kg i.v., n=10, x±s; for Antagonistic action against the arrhythmia induced by aconitine in rats: 100 and 200 mg/kg intragastric, result in words
Procedure: as §1
Sixty Wistar rats were divided into 6 groups randomly: a control group, a positive medicament (Propranolol) group, high- and low-dosage groups (200 and 100 mg/kg) of the inventive compound and the hydrochloride thereof, respectively, 10 animals per group. Fifty minutes after intragastric administration, the animals of each groups were anaesthetized by injecting 10% chloral hydrate intraperitoneally and fixed in a supine position. A type II lead normal electrocardiogram was then recorded. After that, 20 μg/kg of aconitine was injected via sublingual vein, and the change of the electrocardiogram was observed. The occurrence times of ventricular premature contraction (VP), ventricular tachycardia (VT), ventricular fibrillation (VF) and cardiac arrest (CA) after administration of aconitine in the rats were recorded.
as §2

[3] = system: arrhythmia induced by coronary artery ligation in rats; experiment: Arrhythmia induced by coronary artery ligation in rats; format: in vivo, Wistar rats; conditions: for Incidence rate of arrhythmia CA / Incidence rate of arrhythmia VF / Incidence rate of arrhythmia VT / Occurrence times CA / Occurrence times VF / Occurrence times VP / Occurrence times VT: rats, coronary artery ligation; for Occurrence times CA / Occurrence times VF / Occurrence times VP / Occurrence times VT: x±s
Procedure: Models of experimental arrhythmia induced by coronary artery ligation in rats were constructed. The inventive compound was administrated in a dose of 50, 100, 200 mg/kg, respectively. […] Each group wa administrated by gastric perfusion once. The occurrence times and the incidence rates of ventricular premature contraction (VP), ventricular tachycardia (VT), ventricular fibrillation […] and cardiac arrest (CA) after coronary artery ligation in rats were recorded.
The experimental data were analyzed with the statistic software SPSS 10.0, and represented as x±s. The intergroup comparison was analyzed by the intergroup difference comparison t test. The incidence rates were compared by χ^2 test.

[4] = background statement; result in words; cited from earlier work
[5] = 100 mg/kg intragastric, 100 mg/kg
[6] = 200 mg/kg intragastric, 200 mg/kg
[7] = 50 mg/kg by gastric perfusion once
[8] = 100 mg/kg by gastric perfusion once
[9] = 200 mg/kg by gastric perfusion once

SMILES: O=C(Cc1ccccc1)Nc1c2c(nc3c1CCCC3)CCCC2 (as salt: hydrochloride) [Hydrochloride of the inventive compound, hydrochloride of 1,2,3,4,5,6,7,8-octohydro-9-phenylacetamidoacridine]
- melting point: 231 to 234 °C

SMILES: O=C(Cc1ccccc1)Nc1c2c(nc3c1CCCC3)CCCC2 (hydrate or solvate) [Inventive compound, 1,2,3,4,5,6,7,8-octohydro-9-phenylacetamidoacridine]
- melting point: 234 to 236 °C

SMILES: Nc1c2c(nc3c1CCCC3)CCCC2 [9-amino-1,2,3,4,5,6,7,8-octohydroacridine]
- Inhibition activity for cholinesterase (cholinesterase): proved to have an inhibition activity for cholinesterase

SMILES: O=C(Cc1ccccc1)Nc1c2c(nc3c1CCCC3)CCCC2 [Hydrochloride of the inventive compound, hydrochloride of 1,2,3,4,5,6,7,8-octohydro-9-phenylacetamidoacridine]
- Dosages of ouabain CA [1, 5]: 280.3 ± 41.5 µg/kg
- Dosages of ouabain VF [1, 5]: 235.3 ± 36.3 µg/kg
- Dosages of ouabain VP [1, 5]: 171.8 ± 38.4 µg/kg
- Dosages of ouabain VT [1, 5]: 189.7 ± 30.3 µg/kg
- Dosages of ouabain CA [1, 6]: 370.4 ± 66.7 µg/kg
- Dosages of ouabain VF [1, 6]: 298.7 ± 49.1 µg/kg
- Dosages of ouabain VP [1, 6]: 189.5 ± 25.4 µg/kg
- Dosages of ouabain VT [1, 6]: 230.4 ± 35.3 µg/kg
- Antagonistic action against the arrhythmia induced by ouabain in guinea pigs [1]: significant antagonistic actions
- Occurrence time CA [2, 5]: 907.2 ± 250.6 s
- Occurrence time VF [2, 5]: 640.4 ± 217.3 s
- Occurrence time VP [2, 5]: 17.3 ± 7.8 s
- Occurrence time VT [2, 5]: 84.4 ± 19.0 s
- Occurrence time CA [2, 6]: 911.2 ± 186.4 s
- Occurrence time VF [2, 6]: 660.2 ± 204.7 s
- Occurrence time VP [2, 6]: 22.6 ± 6.1 s
- Occurrence time VT [2, 6]: 98.6 ± 21.3 s
- Antagonistic action against the arrhythmia induced by aconitine in rats [2]: significant antagonistic actions

SMILES: O=C(Cc1ccccc1)Nc1c2c(nc3c1CCCC3)CCCC2 [Inventive compound, 1,2,3,4,5,6,7,8-octohydro-9-phenylacetamidoacridine]
- Dosages of ouabain CA [1, 5]: 283.0 ± 46.5 µg/kg
- Dosages of ouabain VF [1, 5]: 230.5 ± 46.4 µg/kg
- Dosages of ouabain VP [1, 5]: 174.9 ± 41.7 µg/kg
- Dosages of ouabain VT [1, 5]: 184.1 ± 28.8 µg/kg
- Dosages of ouabain CA [1, 6]: 371.3 ± 69.6 µg/kg
- Dosages of ouabain VF [1, 6]: 294.5 ± 51.9 µg/kg
- Dosages of ouabain VP [1, 6]: 185.5 ± 24.8 µg/kg
- Dosages of ouabain VT [1, 6]: 228.3 ± 36.6 µg/kg
- Antagonistic action against the arrhythmia induced by ouabain in guinea pigs [1]: significant antagonistic actions
- Antagonistic action against the experimental arrhythmia induced by coronary artery ligation in rats ([3]; rats, 50, 100, 200 mg/kg by gastric perfusion, result in words): significant antagonistic action
- Incidence rate of arrhythmia CA [3, 7]: 21.4%
- Incidence rate of arrhythmia VF [3, 7]: 35.7%
- Incidence rate of arrhythmia VT [3, 7]: 42.8%
- Occurrence times CA [3, 7]: 1141.8 ± 161.9 s
- Occurrence times VF [3, 7]: 930.5 ± 379.4 s
- Occurrence times VP [3, 7]: 82.3 ± 79.0 s
- Occurrence times VT [3, 7]: 773.8 ± 344.3 s
- Incidence rate of arrhythmia CA [3, 8]: 14.3* %
- Incidence rate of arrhythmia VF [3, 8]: 14.3* %
- Incidence rate of arrhythmia VT [3, 8]: 28.6* %
- Occurrence times CA [3, 8]: 1163.4 ± 124.6 s
- Occurrence times VF [3, 8]: 1148.3 ± 193.6 s
- Occurrence times VP [3, 8]: 90.1 ± 39.7 s
- Occurrence times VT [3, 8]: 920.5 ± 270.6 s
- Incidence rate of arrhythmia CA [3, 9]: 12.5* %
- Incidence rate of arrhythmia VF [3, 9]: 12.5* %
- Incidence rate of arrhythmia VT [3, 9]: 12.5** %
- Occurrence times CA [3, 9]: 1176.4 ± 729.2 s
- Occurrence times VF [3, 9]: 1115.0 ± 138.8 s
- Occurrence times VP [3, 9]: 107.3 ± 67.9 s
- Occurrence times VT [3, 9]: 1043.2 ± 247.1 s
- Occurrence time CA [2, 5]: 910.1 ± 276.5 s
- Occurrence time VF [2, 5]: 621.6 ± 203.7 s
- Occurrence time VP [2, 5]: 16.9 ± 8.3 s
- Occurrence time VT [2, 5]: 82.7 ± 21.0 s
- Occurrence time CA [2, 6]: 905.7 ± 170.3 s
- Occurrence time VF [2, 6]: 650.4 ± 193.3 s
- Occurrence time VP [2, 6]: 20.7 ± 6.9 s
- Occurrence time VT [2, 6]: 95.6 ± 20.6 s
- Antagonistic action against the arrhythmia induced by aconitine in rats [2]: significant antagonistic actions

SMILES: CC(C)NCC(O)COc1cccc2ccccc12 (stereo not shown) [Propranolol, reference compound]
- Dosages of ouabain CA ([1]; 10 mg/kg intragastric): 390.6 ± 64.4 µg/kg
- Dosages of ouabain VF ([1]; 10 mg/kg intragastric): 323.2 ± 71.4 µg/kg
- Dosages of ouabain VP ([1]; 10 mg/kg intragastric): 201.3 ± 55.6 µg/kg
- Dosages of ouabain VT ([1]; 10 mg/kg intragastric): 240.7 ± 48.78 µg/kg
- Occurrence time CA ([2]; 10 mg/kg intragastric): 913.7 ± 208.6 s
- Occurrence time VF ([2]; 10 mg/kg intragastric): 705.6 ± 233.2 s
- Occurrence time VP ([2]; 10 mg/kg intragastric): 23.6 ± 6.9 s
- Occurrence time VT ([2]; 10 mg/kg intragastric): 101.6 ± 32.5 s

SMILES: Nc1c2c(nc3ccccc13)CCCC2 [Tacrine, 9-amino-1,2,3,4-tetrahydroacridine]
- Hepatotoxicity [4]: has a hepatotoxicity
